Measurements: the CheMixHub viscosity set
± gives the uncertainty stated by the source.

Assay: xn = mol fraction of the nth substance listed

CCCCC(=O)O + CCCCCCCCCCO
viscosity [mPa·s], 100 kPa
Conditions	x1 = 0.0851	x1 = 0.1742	x1 = 0.2512	x1 = 0.3616	x1 = 0.4363	x1 = 0.5587	x1 = 0.6618	x1 = 0.7474	x1 = 0.8618	x1 = 0.9312
293.15 K	12.76 ± 0.1	11.18 ± 0.1	9.99 ± 0.1	8.58 ± 0.09	7.71 ± 0.09	6.4 ± 0.09	5.35 ± 0.09	4.5 ± 0.09	3.44 ± 0.08	2.83 ± 0.08
303.15 K	8.73 ± 0.1	7.68 ± 0.09	6.9 ± 0.09	5.97 ± 0.09	5.41 ± 0.09	4.56 ± 0.09	3.89 ± 0.08	3.35 ± 0.08	2.65 ± 0.08	2.25 ± 0.08
313.15 K	6.17 ± 0.09	5.54 ± 0.09	5.06 ± 0.08	4.45 ± 0.08	4.07 ± 0.08	3.47 ± 0.08	2.99 ± 0.08	2.61 ± 0.08	2.12 ± 0.08	1.83 ± 0.08
323.15 K	4.49 ± 0.08	4.09 ± 0.08	3.79 ± 0.08	3.38 ± 0.08	3.12 ± 0.08	2.7 ± 0.08	2.37 ± 0.08	2.1 ± 0.08	1.75 ± 0.08	1.55 ± 0.08

CCCCCCCCCCCCOC(C)=O + CCCCCC
303.15 K, 101.3 kPa
Conditions	viscosity [mPa·s]
x1 = 0.1919	0.5038 ± 0.0036
x1 = 0.3182	0.7197 ± 0.005
x1 = 0.4783	1.079 ± 0.0074
x1 = 0.522	1.2 ± 0.0083
x1 = 0.748	1.958 ± 0.014

C=C1CCC2CC1C2(C)C (stereo unspecified) + Cc1cccc(C)c1
viscosity [mPa·s], 101 kPa
Conditions	x2 = 0.2415	x2 = 0.3531	x2 = 0.4592	x2 = 0.5602	x2 = 0.6564	x2 = 0.7482	x2 = 0.8359	x2 = 0.9198
303.15 K	1.225 ± 0.029	1.049 ± 0.025	0.915 ± 0.022	0.799 ± 0.02	0.737 ± 0.019	0.682 ± 0.017	0.637 ± 0.016	0.602 ± 0.016
308.5 K	1.137 ± 0.027	0.98 ± 0.024	0.85 ± 0.021	0.748 ± 0.019	0.685 ± 0.017	0.639 ± 0.017	0.6 ± 0.016	0.568 ± 0.015
313.15 K	1.05 ± 0.025	0.91 ± 0.022	0.787 ± 0.02	0.697 ± 0.018	0.637 ± 0.016	0.593 ± 0.016	0.563 ± 0.015	0.542 ± 0.014

Oc1cccc(O)c1 + CCCCO
Conditions	viscosity [mPa·s]
293.15 K, 101 kPa, x1 = 0.28	19.75 ± 0.1

Cc1cccnc1 + O
298.15 K, 101 kPa
Conditions	viscosity [mPa·s]
x1 = 0.02104	1.202 ± 0.019
x1 = 0.04558	1.604 ± 0.026
x1 = 0.2966	3.291 ± 0.053
x1 = 0.6032	1.972 ± 0.032

CCCC[N+](CCCC)(CCCC)CCCC.[Br-] + O
298.15 K, 101 kPa
Conditions	viscosity [mPa·s]
x1 = 0.0009	0.8723
x1 = 0.0089	1.538
x1 = 0.0177	2.273

Oc1cccc(O)c1 + CCO
Conditions	viscosity [mPa·s]
323.15 K, 101 kPa, x1 = 0.07	1.265 ± 0.0079

CCCC[N+](CCCC)(CCCC)CCCC.[Br-] + CCCCCCCCCO
101.3 kPa, x1 = 0.2
Conditions	viscosity [mPa·s]
293.15 K	56.57 ± 1.3
298.15 K	43.65 ± 1.1
303.15 K	35.27 ± 0.84
308.15 K	28.53 ± 0.68
313.15 K	23.29 ± 0.55
318.15 K	19.13 ± 0.45
323.15 K	15.99 ± 0.37

Oc1cccc(O)c1O + CCCC[N+](CCCC)(CCCC)CCCC.[Br-]
101.3 kPa, x2 = 0.5
Conditions	viscosity [mPa·s]
293.15 K	30000 ± 3900
298.15 K	18500 ± 2200
303.15 K	11000 ± 1200
308.15 K	6000 ± 600
313.15 K	3250 ± 300
318.15 K	1850 ± 150
323.15 K	1200 ± 88

CCCCC(=O)O + CCCCCO
viscosity [mPa·s], 100 kPa
Conditions	x1 = 0.0805	x1 = 0.1593	x1 = 0.2392	x1 = 0.3508	x1 = 0.4406	x1 = 0.5609	x1 = 0.6497	x1 = 0.7392	x1 = 0.8517	x1 = 0.9395
293.15 K	3.93 ± 0.08	3.83 ± 0.08	3.71 ± 0.08	3.54 ± 0.08	3.38 ± 0.08	3.15 ± 0.08	2.98 ± 0.08	2.79 ± 0.08	2.56 ± 0.08	2.37 ± 0.08
303.15 K	2.98 ± 0.08	2.92 ± 0.08	2.85 ± 0.08	2.74 ± 0.08	2.63 ± 0.08	2.48 ± 0.08	2.36 ± 0.08	2.24 ± 0.08	2.08 ± 0.08	1.96 ± 0.08
313.15 K	2.29 ± 0.08	2.25 ± 0.08	2.21 ± 0.08	2.14 ± 0.08	2.07 ± 0.08	1.97 ± 0.08	1.9 ± 0.08	1.82 ± 0.08	1.71 ± 0.08	1.63 ± 0.08
323.15 K	1.79 ± 0.08	1.76 ± 0.08	1.73 ± 0.08	1.68 ± 0.08	1.64 ± 0.08	1.58 ± 0.08	1.54 ± 0.08	1.49 ± 0.08	1.43 ± 0.08	1.38 ± 0.08

Oc1cccc(O)c1O + C[N+](C)(C)CCO.[Cl-]
viscosity [mPa·s], 101.3 kPa
Conditions	293.15 K	298.15 K	303.15 K	308.15 K	313.15 K	318.15 K	323.15 K
x2 = 0.333	6400 ± 630	4850 ± 460	3200 ± 280	2000 ± 160	1250 ± 93	800 ± 54	600 ± 37
x2 = 0.5	6100 ± 600	3750 ± 340	2500 ± 210	1500 ± 120	1000 ± 71	750 ± 50	500 ± 31

CCCCCCCCCCCC(=O)O + CC(C)[C@@H]1CC[C@@H](C)C[C@H]1O
viscosity [mPa·s]
Conditions	293.15 K	298.15 K	303.15 K	308.15 K	313.15 K	318.15 K	323.15 K
100 kPa, x1 = 0.25	–	28.1 ± 0.26	20.91 ± 0.19	15.93 ± 0.15	12.4 ± 0.11	9.84 ± 0.09	7.94 ± 0.07
100 kPa, x2 = 0.33	33.06 ± 0.56	24.42 ± 0.41	18.63 ± 0.32	14.51 ± 0.24	11.45 ± 0.19	9.293 ± 0.16	7.61 ± 0.13
101 kPa, x1 = 0.333	21.81 ± 0.85	–	12.5 ± 0.5	–	7.657 ± 0.3	–	5.112 ± 0.2

CCCC[N+](CCCC)(CCCC)CCCC.[Br-] + OCCO
Conditions	viscosity [mPa·s]
293.15 K, 101 kPa, x1 = 0.333	187.3 ± 15
298 K, 100 kPa, x2 = 0.75	98 ± 2.5
298 K, 101.33 kPa, x1 = 0.2	41.51 ± 4.2
298.15 K, 100 kPa, x1 = 0.333	188 ± 8.6
298.15 K, 101 kPa, x1 = 0.2	69 ± 0.9
303.15 K, 100 kPa, x1 = 0.2	161.7 ± 6.9
303.15 K, 101 kPa, x1 = 0.2	53.8 ± 0.5
303.15 K, 101 kPa, x1 = 0.333	124 ± 10
308 K, 100 kPa, x2 = 0.75	57 ± 1.3
308.15 K, 101 kPa, x1 = 0.2	42.6 ± 0.5
313.15 K, 100 kPa, x1 = 0.2	102.1 ± 4.2
313.15 K, 101 kPa, x1 = 0.2	31.2 ± 0.4
313.15 K, 101 kPa, x1 = 0.333	84.3 ± 6.8
318 K, 100 kPa, x2 = 0.75	35 ± 0.8
318.15 K, 101 kPa, x1 = 0.2	27.8 ± 0.3
323.15 K, 100 kPa, x1 = 0.2	61.85 ± 2.5
323.15 K, 101 kPa, x1 = 0.2	21.7 ± 0.3
323.15 K, 101 kPa, x1 = 0.333	58.7 ± 4.7

Oc1cccc2ccccc12 + CCO
viscosity [mPa·s], 101 kPa
Conditions	x1 = 0.03	x1 = 0.06	x1 = 0.09	x1 = 0.12	x1 = 0.15
293.15 K	1.425 ± 0.036	1.638 ± 0.039	1.885 ± 0.044	2.205 ± 0.05	2.538 ± 0.058
303.15 K	1.158 ± 0.031	1.337 ± 0.034	1.523 ± 0.037	1.733 ± 0.041	1.968 ± 0.045
313.15 K	0.964 ± 0.028	1.103 ± 0.03	1.251 ± 0.033	1.417 ± 0.036	1.6 ± 0.039
323.15 K	0.795 ± 0.026	0.91 ± 0.028	1.048 ± 0.03	1.186 ± 0.032	1.339 ± 0.034
